# Laboratory results: PubChem BioAssay (NCI)
#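 Five concentrations, 48 hours, 96-well plates. At the GI50, growth is halved. TGI: concentration producing complete growth inhibition.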
# How the values were obtained:
# Assay in all cases: NCI tumour cell line growth inhibition, 48 h
# DMS 273 small cell lung = system: DMS 273 small cell lung
# HOP-18 NSCLC = system: HOP-18 NSCLC
# HOP-92 NSCLC = system: HOP-92 NSCLC
# DLD-1 colon = system: DLD-1 colon
# OVCAR-5 ovarian = system: OVCAR-5 ovarian
# U251 CNS = system: U251 CNS
# M19-MEL melanoma = system: M19-MEL melanoma
# IGROV1 ovarian = system: IGROV1 ovarian
# KM12 colon = system: KM12 colon
# SR leukemia = system: SR leukemia
# ACHN renal = system: ACHN renal
# HS 578T breast = system: HS 578T breast
SMILES,TGI (DMS 273 small cell lung),TGI (HOP-18 NSCLC),TGI (HOP-92 NSCLC),TGI (DLD-1 colon),TGI (OVCAR-5 ovarian),TGI (U251 CNS),TGI (M19-MEL melanoma),TGI (IGROV1 ovarian),TGI (KM12 colon),TGI (SR leukemia),TGI (ACHN renal),GI50 (KM12 colon),GI50 (SR leukemia),GI50 (HS 578T breast),TGI (HS 578T breast),GI50 (HOP-92 NSCLC),GI50 (OVCAR-5 ovarian),GI50 (ACHN renal),GI50 (U251 CNS),GI50 (IGROV1 ovarian)
COc1cc(C2c3cc4c(cc3[C@@H](Nc3ccc(N5CCOCC5)cc3)C3COC(=O)[C@H]23)OCO4)cc(OC)c1O (some centres not stated),1.85 µM,6.67 µM,8.74 µM,4.12 µM,22.1 µM,1.89 µM,22.8 µM,26 µM,–,–,–,–,–,–,–,–,–,–,–,–
N/C(=N\N=C/c1cc(Cl)cc(Cl)c1O)NO,11.9 µM,> 100 µM,46.8 µM,> 100 µM,33.5 µM,> 100 µM,27 µM,44.3 µM,22.4 µM,–,–,–,–,–,–,–,–,–,–,–
Cn1nc2ccc3nccc(NCCNCCCl)c3c2n1,> 100 µM,–,> 100 µM,> 100 µM,> 100 µM,–,> 100 µM,> 100 µM,> 100 µM,> 100 µM,> 100 µM,–,–,–,–,–,–,–,–,–
CCOC(=O)C1CCn2c(nc3c(=O)n(C)c(=O)n(C)c32)S1 (configuration not stated),> 100 µM,> 100 µM,–,> 100 µM,> 100 µM,> 100 µM,–,> 100 µM,–,> 100 µM,> 100 µM,–,–,–,–,–,–,–,–,–
CC1=NN(C(=O)c2ccccc2)C(=O)C1N=Nc1ccccc1C(=O)O (configuration not stated),> 100 µM,> 100 µM,> 100 µM,> 100 µM,> 100 µM,> 100 µM,> 100 µM,> 78.1 µM,> 100 µM,–,–,–,–,–,–,–,–,–,–,–
CCNC(=O)CCCCC(=O)c1c(C)[nH]c(/C=C2\N=C(c3ccc[nH]3)C=C2OC)c1C,–,–,9.69 µM,–,20.6 µM,4.5 µM,–,> 100 µM,4.79 µM,32.8 µM,3.34 µM,2.17 µM,1.65 µM,2.04 µM,4.92 µM,2.04 µM,6.01 µM,1.8 µM,1.99 µM,3.82 µM
O=C(/C=C\c1ccc(OCCCCCC[P+](c2ccccc2)(c2ccccc2)c2ccccc2)cc1)c1ccc2c(c1)OCCO2,–,–,2.79 µM,–,–,–,–,–,–,9.07 µM,3.29 µM,–,0.656 µM,0.827 µM,5.02 µM,0.487 µM,–,1.79 µM,–,–
O=C(O)C1C2CCC(C2)C1c1ccccc1 (configuration not stated),–,–,> 100 µM,–,> 100 µM,> 100 µM,–,–,> 100 µM,> 100 µM,> 100 µM,–,–,–,> 100 µM,–,–,–,–,–
CN(C)S(=O)(=O)c1cccc(-c2nc3sc4c(c3c(=O)[nH]2)CCCC4)c1,–,–,–,–,–,–,–,–,–,–,–,–,–,2.98 µM,> 100 µM,–,–,–,–,–
COC(=O)C[C@](O)(CCC(C)(C)O)C(=O)O[C@@H]1C(OC)=C[C@]23CCCN2CCc2cc4c(cc2[C@H]13)OCO4,0.131 µM,0.756 µM,0.653 µM,–,1.08 µM,0.379 µM,0.363 µM,0.506 µM,1.21 µM,–,–,–,–,–,–,–,–,–,–,–
Cc1cc(C)c(N)c(C)c1N,> 100 µM,> 100 µM,> 100 µM,> 100 µM,> 100 µM,> 100 µM,> 100 µM,> 100 µM,> 100 µM,> 100 µM,> 100 µM,–,–,–,–,–,–,–,–,–
CCOC(=O)CCc1c(C)c2c(O)cc(O)cc2oc1=O,> 100 µM,> 100 µM,> 100 µM,> 100 µM,> 100 µM,> 100 µM,> 100 µM,> 100 µM,> 100 µM,–,–,–,–,–,–,–,–,–,–,–
O=C(/C=C/c1ccsc1)c1ccc(Cl)s1,–,–,–,–,–,> 100 µM,–,> 100 µM,35.9 µM,54 µM,> 100 µM,–,–,–,> 100 µM,–,–,–,–,–
CC(C(O)c1ccccc1)[N+](=O)[O-] (configuration not stated),–,–,–,–,65.6 µM,38.4 µM,–,34.4 µM,50.6 µM,9.82 µM,33.7 µM,–,–,–,98.7 µM,–,–,–,–,–
